# Source: PubChem BioAssay AID248 (DTP/NCI, 2004)
# Values joined by “and” are separate entries in the source; they are usually repeats but may differ in a detail not shown here. Equal values may be shown once. Toxic doses and inconclusive results are not listed.
# Tested on: L1210 leukemia ip in BDF1 mice, survival T/C
# Test: NCI In Vivo Anticancer Drug Screen. Data for tumor model L1210 Leukemia (intraperitoneal) in B6D2F1 (BDF1) mice
# Conditions: endpoint: mean survival time, higher = longer survival
# Outline: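 Ratio derived from survival: compound-dosed mice over vehicle-dosed mice, all bearing a transplantable tumor.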
# [1] = dose: 100.0 mg/kg/injection, schedule: Q01DX009 (ip), vehicle: Klucel (hydroxypropylcellulose) (HPC)
# [2] = dose: 200.0 mg/kg/injection, schedule: Q01DX009 (ip), vehicle: Klucel (hydroxypropylcellulose) (HPC)
# [3] = dose: 100.0 mg/kg/injection, schedule: Q01DX001 (ip), vehicle: carboxymethylcellulose (CMC)
# [4] = dose: 200.0 mg/kg/injection, schedule: Q01DX001 (ip), vehicle: carboxymethylcellulose (CMC)
# [5] = dose: 400.0 mg/kg/injection, schedule: Q01DX001 (ip), vehicle: carboxymethylcellulose (CMC)
# [6] = dose: 100.0 mg/kg/injection, schedule: Q01DX001 (ip), vehicle: saline
# [7] = dose: 200.0 mg/kg/injection, schedule: Q01DX001 (ip), vehicle: saline
# [8] = dose: 400.0 mg/kg/injection, schedule: Q01DX001 (ip), vehicle: saline
# [9] = dose: 100.0 mg/kg/injection, schedule: Q04DX003 (ip), vehicle: saline
# [10] = dose: 200.0 mg/kg/injection, schedule: Q04DX003 (ip), vehicle: saline
# [11] = dose: 400.0 mg/kg/injection, schedule: Q04DX003 (ip), vehicle: saline
smiles,measurement,setting,value
CC(C)C(=O)NNCc1ccccc1,T/C,"dose: 12.5 mg/kg/injection, schedule: Q01DX009 (ip), vehicle: Klucel (hydroxypropylcellulose) (HPC)",106 % of control
same,T/C,"dose: 25.0 mg/kg/injection, schedule: Q01DX009 (ip), vehicle: Klucel (hydroxypropylcellulose) (HPC)",104 % of control
same,T/C,"dose: 50.0 mg/kg/injection, schedule: Q01DX009 (ip), vehicle: Klucel (hydroxypropylcellulose) (HPC)",97 % of control
same,T/C,[1],92 % of control
O=C(c1ccc(Cl)cc1)N1CCC(CCCc2ccccc2)CC1,T/C,"dose: 100.0 mg/kg/injection, schedule: Q04DX002 (ip), vehicle: Klucel (hydroxypropylcellulose) (HPC)",96 % of control
same,T/C,"dose: 200.0 mg/kg/injection, schedule: Q04DX002 (ip), vehicle: Klucel (hydroxypropylcellulose) (HPC)",99 % of control
same,T/C,"dose: 400.0 mg/kg/injection, schedule: Q04DX002 (ip), vehicle: Klucel (hydroxypropylcellulose) (HPC)",96 % of control
CS(=O)(=O)OCCN(CCOS(C)(=O)=O)c1ccc(C=Nc2ccc3ccccc3c2)cc1,T/C,"dose: 20.0 mg/kg/injection, schedule: Q04DX003 (ip), vehicle: Klucel (hydroxypropylcellulose) (HPC)",110 % of control
same,T/C,"dose: 40.0 mg/kg/injection, schedule: Q04DX003 (ip), vehicle: Klucel (hydroxypropylcellulose) (HPC)",117 % of control
same,T/C,"dose: 53.3 mg/kg/injection, schedule: Q04DX003 (ip), vehicle: Klucel (hydroxypropylcellulose) (HPC)",152 % of control
same,T/C,"dose: 100.0 mg/kg/injection, schedule: Q04DX003 (ip), vehicle: Klucel (hydroxypropylcellulose) (HPC)",120 % of control
same,T/C,"dose: 120.0 mg/kg/injection, schedule: Q04DX003 (ip), vehicle: Klucel (hydroxypropylcellulose) (HPC)",95 % of control and 100 % of control
NC(=O)c1nc(C(F)(F)F)[nH]c1C(N)=O,T/C,"dose: 50.0 mg/kg/injection, schedule: Q01DX009 (ip), vehicle: water",96 % of control
same,T/C,"dose: 100.0 mg/kg/injection, schedule: Q01DX009 (ip), vehicle: water",102 % of control
same,T/C,"dose: 100.0 mg/kg/injection, schedule: Q04DX003 (ip), vehicle: water",100 % of control
same,T/C,"dose: 200.0 mg/kg/injection, schedule: Q01DX009 (ip), vehicle: water",109 % of control
same,T/C,"dose: 200.0 mg/kg/injection, schedule: Q04DX003 (ip), vehicle: water",100 % of control
same,T/C,"dose: 300.0 mg/kg/injection, schedule: Q01DX009 (ip), vehicle: water",91 % of control
CC(=O)CC1(O)C(=O)Nc2ccccc21 (stereo not given),T/C,[1],101 % of control
same,T/C,[2],95 % of control
same,T/C,"dose: 400.0 mg/kg/injection, schedule: Q01DX009 (ip), vehicle: Klucel (hydroxypropylcellulose) (HPC)",98 % of control
O=C1OC(=O)C2C3OC(C(Cl)C3Cl)C12 (stereo not given),T/C,[1],106 % of control
same,T/C,[2],106 % of control
CNC(=O)C1OC(n2cnc3c(N)ncnc32)C2OC(C)(C)OC12 (stereo not given),T/C,"dose: 100.0 mg/kg/injection, schedule: Q01DX005 (ip), vehicle: saline",97 % of control
same,T/C,"dose: 200.0 mg/kg/injection, schedule: Q01DX005 (ip), vehicle: saline",101 % of control
Clc1ccc(C2NC(c3ccc(Cl)cc3)NC(c3ccc(Cl)cc3)N2)cc1 (stereo not given),T/C,"dose: 75.0 mg/kg/injection, schedule: Q01DX001 (ip), vehicle: saline",95 % of control
same,T/C,"dose: 150.0 mg/kg/injection, schedule: Q01DX001 (ip), vehicle: saline",95 % of control
same,T/C,"dose: 300.0 mg/kg/injection, schedule: Q01DX001 (ip), vehicle: saline",90 % of control
CC1=CC(C)(C)Nc2cc(N)ccc21,T/C,"dose: 75.0 mg/kg/injection, schedule: Q01DX001 (ip), vehicle: other",110 % of control
same,T/C,"dose: 150.0 mg/kg/injection, schedule: Q01DX001 (ip), vehicle: other",105 % of control
same,T/C,"dose: 300.0 mg/kg/injection, schedule: Q01DX001 (ip), vehicle: other",91 % of control
O=C1CC(C(=O)O)C2(CCCCC2)O1 (stereo not given),T/C,"dose: 100.0 mg/kg/injection, schedule: Q04DX002 (ip), vehicle: saline with Tween-80",104 % of control
same,T/C,"dose: 200.0 mg/kg/injection, schedule: Q04DX002 (ip), vehicle: saline with Tween-80",101 % of control
same,T/C,"dose: 400.0 mg/kg/injection, schedule: Q04DX002 (ip), vehicle: saline with Tween-80",101 % of control
COc1ccc(OC)c2c(OC(C)=O)c3ccccc3c(OC(C)=O)c12,T/C,"dose: 50.0 mg/kg/injection, schedule: Q01DX001 (ip), vehicle: carboxymethylcellulose (CMC)",98 % of control
same,T/C,[3],108 % of control
same,T/C,[4],98 % of control
same,T/C,[5],110 % of control
Oc1ccccc1OCCOCCCl,T/C,"dose: 100.0 mg/kg/injection, schedule: Q04DX002 (sc), vehicle: olive oil, sesame oil, peanut oil",93 % of control
same,T/C,"dose: 200.0 mg/kg/injection, schedule: Q04DX002 (sc), vehicle: olive oil, sesame oil, peanut oil",101 % of control
same,T/C,"dose: 400.0 mg/kg/injection, schedule: Q04DX002 (sc), vehicle: olive oil, sesame oil, peanut oil",246 % of control
COc1ccc(C2(OC)Oc3ccccc3-c3nc4ccccc4nc32)cc1 (stereo not given),T/C,"dose: 50.0 mg/kg/injection, schedule: Q01DX001 (ip), vehicle: saline",95 % of control
same,T/C,[6],95 % of control
same,T/C,[7],87 % of control
same,T/C,[8],95 % of control
O=C(O)[C@@H]1C[C@@H](O)CN1,T/C,[6],87 % of control
same,T/C,[7],100 % of control
same,T/C,[8],94 % of control
O=C(COc1ccccc1)Nc1ccc[n+](Cc2ccc(S(=O)(=O)F)cc2)c1,T/C,[9],95 % of control and 118 % of control
same,T/C,[10],101 % of control and 118 % of control
same,T/C,[11],95 % of control and 114 % of control
CCOC(=O)Cc1c(C)[nH]c2c(C)ccc(C)c12,T/C,"dose: 5.0 mg/kg/injection, schedule: Q01DX001 (ip), vehicle: other",94 % of control
same,T/C,"dose: 10.0 mg/kg/injection, schedule: Q01DX001 (ip), vehicle: other",91 % of control
same,T/C,"dose: 20.0 mg/kg/injection, schedule: Q01DX001 (ip), vehicle: other",105 % of control
same,T/C,"dose: 40.0 mg/kg/injection, schedule: Q01DX001 (ip), vehicle: other",96 % of control
same,T/C,"dose: 80.0 mg/kg/injection, schedule: Q01DX001 (ip), vehicle: other",100 % of control
CCOC(=O)C1CSC(C)(C(=O)OCC)N1 (stereo not given),T/C,[3],100 % of control
same,T/C,[4],96 % of control
same,T/C,[5],105 % of control
C[N+](C)(C)CCCBr,T/C,"dose: 10.0 mg/kg/injection, schedule: Q01DX001 (ip), vehicle: saline",112 % of control
same,T/C,"dose: 20.0 mg/kg/injection, schedule: Q01DX001 (ip), vehicle: saline",89 % of control
CN(C)/C=C1\C(=O)Nc2c1c(=O)n(C)c(=O)n2C,T/C,"dose: 50.0 mg/kg/injection, schedule: Q01DX009 (ip), vehicle: saline",93 % of control
same,T/C,"dose: 100.0 mg/kg/injection, schedule: Q01DX009 (ip), vehicle: saline",90 % of control
COc1ccc(C(C#N)CC(=O)c2ccc(OCc3ccccc3)c(OC)c2)cc1OC (stereo not given),T/C,"dose: 75.0 mg/kg/injection, schedule: Q01DX009 (ip), vehicle: other",88 % of control
same,T/C,[9],90 % of control
same,T/C,"dose: 150.0 mg/kg/injection, schedule: Q01DX009 (ip), vehicle: other",90 % of control
same,T/C,[10],96 % of control
same,T/C,"dose: 300.0 mg/kg/injection, schedule: Q01DX009 (ip), vehicle: other",95 % of control
same,T/C,[11],94 % of control
same,T/C,"dose: 600.0 mg/kg/injection, schedule: Q01DX009 (ip), vehicle: other",102 % of control
